Laboratory results taken from patent US11998539B2, “Substituted aminoquinolones as DGKalpha inhibitors for immune activation” (Bayer Aktiengesellschaft, priority 2019, dated 2024).

Target: DGKα (Homo sapiens (Human), UniProt P23743)
Test: Human DGKα kinase activity inhibition assay (ADP-Glo)
Type: biochemical
Conditions: recombinant full-length human DGKα, 55 μM ATP, 7 μM 1,2-dioleoyl-sn-glycerol, read-out: IC50 values of examples in in vitro human DGKa kinase activity inhibition assays
Procedure, shortened: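 Activity was measured as ADP production, detected by luciferase luminescence after removal of unused ATP. The enzyme was baculovirus-expressed full-length human DGKα with a C-terminal FLAG tag. The substrate was 1,2-dioleoyl-sn-glycerol in detergent micelles, and compounds came from 100× DMSO solutions.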

Chain of DGKα (P23743 other isoform, or with tags, fused parts or gaps): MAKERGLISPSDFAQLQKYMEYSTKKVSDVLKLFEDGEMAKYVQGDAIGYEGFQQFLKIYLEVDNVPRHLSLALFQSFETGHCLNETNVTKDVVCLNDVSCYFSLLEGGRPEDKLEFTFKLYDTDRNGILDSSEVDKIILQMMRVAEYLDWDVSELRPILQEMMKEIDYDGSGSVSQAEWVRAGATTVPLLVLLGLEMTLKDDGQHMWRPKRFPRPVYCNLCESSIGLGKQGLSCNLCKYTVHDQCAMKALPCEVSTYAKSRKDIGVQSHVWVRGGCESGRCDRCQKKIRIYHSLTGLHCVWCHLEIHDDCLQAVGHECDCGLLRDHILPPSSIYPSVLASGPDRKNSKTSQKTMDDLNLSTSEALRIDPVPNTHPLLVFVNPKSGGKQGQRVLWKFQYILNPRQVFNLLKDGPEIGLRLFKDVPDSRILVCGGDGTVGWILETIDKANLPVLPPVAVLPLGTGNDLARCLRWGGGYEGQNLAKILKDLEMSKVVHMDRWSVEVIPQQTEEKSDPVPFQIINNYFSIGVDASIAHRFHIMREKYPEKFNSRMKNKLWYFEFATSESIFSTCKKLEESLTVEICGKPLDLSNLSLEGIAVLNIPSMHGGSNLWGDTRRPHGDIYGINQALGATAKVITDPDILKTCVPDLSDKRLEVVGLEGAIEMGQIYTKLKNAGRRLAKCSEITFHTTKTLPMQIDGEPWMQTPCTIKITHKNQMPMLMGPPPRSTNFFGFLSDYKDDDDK

SMILES | IC50
Cc1ccc2oc(C3(C)CCN(c4c(C#N)c(=O)n(C)c5cc(OCC6(C#N)CC6)ccc45)CC3)nc2c1 [Example 251, 7-[(1-cyanocyclopropyl)methoxy]-1-methyl-4-[4-methyl-4-(5-methyl-1,3-benzoxazol-2-yl)piperidin-1-yl]-2-oxo-1,2-dihydroquinoline-3-carbonitrile] | 9.3 nM
COc1ccc2c(N3CCC(c4nc5ccccc5s4)CC3)c(C#N)c(=O)n(C)c2c1 [Example 240, 4-[4-(1,3-benzothiazol-2-yl)piperidin-1-yl]-7-methoxy-1-methyl-2-oxo-1,2-dihydroquinoline-3-carbonitrile] | 2.5 nM
Cn1c(=O)c(C#N)c(N2CCC(c3ccc(-c4ccccc4)cc3)CC2)c2ccccc21 [Example 53, 4-[4-([1,1′-biphenyl]-4-yl)piperidin-1-yl]-1-methyl-2-oxo-1,2-dihydroquinoline-3-carbonitrile] | 13 nM
Cn1c(=O)c(C#N)c(N2CCC(c3nc4cc(C5COC5)ccc4o3)CC2)c2ccccc21 [Example 287, 1-methyl-4-{4-[5-(oxetan-3-yl)-1,3-benzoxazol-2-yl]piperidin-1-yl}-2-oxo-1,2-dihydroquinoline-3-carbonitrile] | 22 nM
Cc1ccc2oc(C3CCN(c4c(C#N)c(=O)n(C)c5ccc(OCC(C)(F)F)cc45)CC3)nc2c1 [Example 406, 6-(2,2-difluoropropoxy)-1-methyl-4-[4-(5-methyl-1,3-benzoxazol-2-yl)piperidin-1-yl]-2-oxo-1,2-dihydroquinoline-3-carbonitrile] | 36 nM
Cc1ccc2oc(C3(C)CCN(c4c(C#N)c(=O)n(C)c5ccc(OC6CCC6)cc45)CC3)nc2c1 [Example 278, 6-(cyclobutyloxy)-1-methyl-4-[4-methyl-4-(5-methyl-1,3-benzoxazol-2-yl)piperidin-1-yl]-2-oxo-1,2-dihydroquinoline-3-carbonitrile] | 480 nM
Cc1ccccc1-c1nnc(C2CCN(c3c(C(N)=O)c(=O)n(C)c4ccccc34)CC2)o1 [Example 461, 1-methyl-4-{4-[5-(2-methylphenyl)-1,3,4-oxadiazol-2-yl]piperidin-1-yl}-2-oxo-1,2-dihydroquinoline-3-carboxamide] | 77 nM
Cn1c(=O)c(C#N)c(N2CCC(C)(c3nc4cc(S(C)(=O)=O)ccc4o3)CC2)c2ccccc21 [Example 25, 4-{4-[5-(methanesulfonyl)-1,3-benzoxazol-2-yl]-4-methylpiperidin-1-yl}-1-methyl-2-oxo-1,2-dihydroquinoline-3-carbonitrile] | 168 nM
COc1cccc(C2CCN(c3c(C#N)c(=O)n(C)c4ccccc34)CC2)c1 [Example 55, 4-[4-(3-methoxyphenyl)piperidin-1-yl]-1-methyl-2-oxo-1,2-dihydroquinoline-3-carbonitrile] | 14 nM
COc1ccc2oc(C3CCN(c4c(C#N)c(=O)n(C)c5ccccc45)CC3)nc2c1 [Example 386, 4-[4-(5-methoxy-1,3-benzoxazol-2-yl)piperidin-1-yl]-1-methyl-2-oxo-1,2-dihydroquinoline-3-carbonitrile] | 9.4 nM
Cc1cccc(-c2noc(C3CCN(c4c(C(N)=O)c(=O)n(C)c5ccccc45)CC3)n2)c1 [Example 460, 1-methyl-4-{4-[3-(3-methylphenyl)-1,2,4-oxadiazol-5-yl]piperidin-1-yl}-2-oxo-1,2-dihydroquinoline-3-carboxamide] | 3.5 nM
COC1(c2cccc(Cl)c2)CCN(c2c(C#N)c(=O)n(C)c3ccccc23)CC1 [Example 336, 4-[4-(3-chlorophenyl)-4-methoxypiperidin-1-yl]-1-methyl-2-oxo-1,2-dihydroquinoline-3-carbonitrile] | 80 nM
Cn1c(=O)c(C#N)c(N2CCC(c3ccccc3)CC2)c2ccccc21 [Example 57, 1-methyl-2-oxo-4-(4-phenylpiperidin-1-yl)-1,2-dihydroquinoline-3-carbonitrile] | 22 nM
CCCOc1ccc2c(N3CCC(C)(c4nc5cc(C)ccc5o4)CC3)c(C#N)c(=O)n(C)c2c1 [Example 257, 1-methyl-4-[4-methyl-4-(5-methyl-1,3-benzoxazol-2-yl)piperidin-1-yl]-2-oxo-7-propoxy-1,2-dihydroquinoline-3-carbonitrile] | 26 nM
COC1(c2cccc(Cl)c2)CCN(c2c(C(N)=O)c(=O)n(C)c3ccccc23)CC1 [Example 451, 4-[4-(3-chlorophenyl)-4-methoxypiperidin-1-yl]-1-methyl-2-oxo-1,2-dihydroquinoline-3-carboxamide] | 163 nM
Cn1c(=O)c(C#N)c(N2CCC(C)(c3nnc(-c4cccc(Cl)c4)o3)CC2)c2ccccc21 [Example 355, 4-{4-[5-(3-chlorophenyl)-1,3,4-oxadiazol-2-yl]-4-methylpiperidin-1-yl}-1-methyl-2-oxo-1,2-dihydroquinoline-3-carbonitrile] | 140 nM
Cc1ccc2oc(C3(C)CCN(c4c(C#N)c(=O)n(C)c5c(OC6COC6)cccc45)CC3)nc2c1 [Example 253, 1-methyl-4-[4-methyl-4-(5-methyl-1,3-benzoxazol-2-yl)piperidin-1-yl]-8-[(oxetan-3-yl)oxy]-2-oxo-1,2-dihydroquinoline-3-carbonitrile] | 14 nM

SMILES | IC50
Cn1c(=O)c(C#N)c(N2CCC(c3nc4ccccc4o3)CC2)c2ccc(Br)cc21 [Example 27, 4-[4-(1,3-benzoxazol-2-yl)piperidin-1-yl]-7-bromo-1-methyl-2-oxo-1,2-dihydroquinoline-3-carbonitrile] | 2 nM
COC1(c2cc3ccccc3s2)CCN(c2c(C#N)c(=O)n(C)c3ccccc23)CC1 [Example 341, 4-[4-(1-benzothiophen-2-yl)-4-methoxypiperidin-1-yl]-1-methyl-2-oxo-1,2-dihydroquinoline-3-carbonitrile] | 3.3 nM
Cn1c(=O)c(C#N)c(N2CCC(c3nc(-c4ccccc4)no3)CC2)c2cc(Br)ccc21 [Example 440, 6-bromo-1-methyl-2-oxo-4-[4-(3-phenyl-1,2,4-oxadiazol-5-yl)piperidin-1-yl]-1,2-dihydroquinoline-3-carbonitrile] | 8.9 nM
Cn1c(=O)c(C#N)c(N2CCC(c3nc4ccc(Cl)cc4o3)CC2)c2ccc(Br)cc21 [Example 32, 7-bromo-4-[4-(6-chloro-1,3-benzoxazol-2-yl)piperidin-1-yl]-1-methyl-2-oxo-1,2-dihydroquinoline-3-carbonitrile] | 6 nM
Cn1c(=O)c(C#N)c(N2CCC(c3cccnc3)CC2)c2ccccc21 [Example 144, 1-methyl-2-oxo-4-[4-(pyridin-3-yl)piperidin-1-yl]-1,2-dihydroquinoline-3-carbonitrile] | 897 nM
Cc1ccc2oc(C3(C)CCN(c4c(C#N)c(=O)n(C)c5ccc(C#N)cc45)CC3)nc2c1 [Example 207, 1-methyl-4-[4-methyl-4-(5-methyl-1,3-benzoxazol-2-yl)piperidin-1-yl]-2-oxo-1,2-dihydroquinoline-3,6-dicarbonitrile] | 2.7 nM
Cc1ccc2c(c1)c(N1CCC(c3nc4ccccc4s3)CC1)c(C#N)c(=O)n2C [Example 174, 4-[4-(1,3-benzothiazol-2-yl)piperidin-1-yl]-1,6-dimethyl-2-oxo-1,2-dihydroquinoline-3-carbonitrile] | 1.7 nM
Cc1ccc(-c2nnc(C3CCN(c4c(C#N)c(=O)n(C)c5ccccc45)CC3)o2)cc1 [Example 352, 1-methyl-4-{4-[5-(4-methylphenyl)-1,3,4-oxadiazol-2-yl]piperidin-1-yl}-2-oxo-1,2-dihydroquinoline-3-carbonitrile] | 113 nM
CC(C)c1ccc2oc(C3(C)CCN(c4c(C#N)c(=O)n(C)c5ccccc45)CC3)nc2c1 [Example 21, 1-methyl-4-{4-methyl-4-[5-(propan-2-yl)-1,3-benzoxazol-2-yl]piperidin-1-yl}-2-oxo-1,2-dihydroquinoline-3-carbonitrile] | 5.2 nM
CC(C)c1ccc2oc(C3CCN(c4c(C#N)c(=O)n(C)c5ccccc45)CC3)nc2c1 [Example 8, 1-methyl-2-oxo-4-{4-[5-(propan-2-yl)-1,3-benzoxazol-2-yl]piperidin-1-yl}-1,2-dihydroquinoline-3-carbonitrile] | 3.2 nM
Cc1nc2ccc(C3CCN(c4c(C#N)c(=O)n(C)c5ccccc45)CC3)cc2o1 [Example 376, 1-methyl-4-[4-(2-methyl-1,3-benzoxazol-6-yl)piperidin-1-yl]-2-oxo-1,2-dihydroquinoline-3-carbonitrile] | 14 nM
Cc1ccc2oc(C3CCN(c4c(C(N)=O)c(=O)n(C)c5cc(N(C)CCO)ccc45)CC3)nc2c1 [Example 495, 7-[(2-hydroxyethyl)(methyl)amino]-1-methyl-4-[4-(5-methyl-1,3-benzoxazol-2-yl)piperidin-1-yl]-2-oxo-1,2-dihydroquinoline-3-carboxamide] | 1.4 nM
Cc1c(C#N)cccc1C1CCN(c2c(C#N)c(=O)n(C)c3ccccc23)CC1 [Example 64, 4-[4-(3-cyano-2-methylphenyl)piperidin-1-yl]-1-methyl-2-oxo-1,2-dihydroquinoline-3-carbonitrile] | 73 nM
Cn1c(=O)c(C#N)c(N2CCC(c3ccc(C#N)cc3)CC2)c2ccccc21 [Example 86, 4-[4-(4-cyanophenyl)piperidin-1-yl]-1-methyl-2-oxo-1,2-dihydroquinoline-3-carbonitrile] | 54 nM
Cn1c(=O)c(C#N)c(N2CCC(c3nc4cc(F)ccc4s3)CC2)c2ccccc21 [Example 13, 4-[4-(5-fluoro-1,3-benzothiazol-2-yl)piperidin-1-yl]-1-methyl-2-oxo-1,2-dihydroquinoline-3-carbonitrile] | 5.1 nM
Cc1ccc2oc(C3(C)CCN(c4c(C#N)c(=O)n(C)c5cc(C)ccc45)CC3)nc2c1 [Example 220, 1,7-dimethyl-4-[4-methyl-4-(5-methyl-1,3-benzoxazol-2-yl)piperidin-1-yl]-2-oxo-1,2-dihydroquinoline-3-carbonitrile] | 1.7 nM
